Results: article PMC7017074 (Cancers, 2020)

Assays:
[1] = Animal biodistribution study (organ and tumor distribution of DOX); assay type: in vivo, Balb/c mice; details: for DOX in heart / DOX in kidney / DOX in liver / DOX in lungs / DOX in spleen / DOX in tumor: 4T1 tumor mice, IV DOX 5 mg/kg
Method: Organs were homogenized and lysed with a lysis reagent (sodium fluoride and stable stock lysis buffer). The mixture was centrifuged at 8000 rpm at 4 °C for 50 min. The supernatant was collected in 1.5-mL microcentrifuge tubes. […] The data were presented as means ± SD in relative fluorescence units (RFU)/mg of organ weight.

[2] = Serum drug concentration following an intravenous injection; assay type: in vivo, Balb/c mice
Method: The mice were sacrificed after 2 h and 24 h of tail-vein injection (n = 5). The organs such as the liver, kidney, heart, spleen, lungs, and brain, as well as the tumor tissues, were isolated and kept in lysis buffer (pH 7.4) and kept at −150 °C in a freezer until further analysis. Additionally, the weights of all the organs and tumor tissues were measured for quantitative analysis of the presence of drug-loaded NPs.
To determine the serum level of total drug-loaded NPs, blood samples of all the mice treated (n = 5) were collected by cardiac puncture using a 1-mL syringe with a 25G needle. A secondary method of euthanasia was performed after a cardiac puncture to sacrifice the animal. The blood samples were collected at two time points of analysis (2 h and 24 h of treatment). The blood samples were allowed to clot by leaving them at room temperature and then centrifuged at 10,000 rpm for 30 min at 4 °C to collect the supernatant serum. Afterward, 100 µL of each serum sample was collected and stored at −80 °C until it was assayed. The fluorescence emission of serum was measured using Perkin Elmer 2030 manager software attached to a 2030 multilabel reader victor X5 (Perkin Elmer) at 485/535 nm. The data were illustrated as means ± SD in RFU/100 µL of serum.

[3] = tested on: 4T1 cells; experiment: Tumor regression study in murine breast cancer model; assay type: in vivo, Balb/c mice
[4] = tumor-bearing mice, 25 days, vs untreated group; CYP 0.3 mg/kg BW

Compound: COc1cccc2c1C(=O)c1c(O)c3c(c(O)c1C2=O)C[C@@](O)(C(=O)CO)C[C@@H]3O[C@H]1C[C@H](N)[C@H](O)[C@H](C)O1 [Free DOX, doxorubicin]
- DOX in heart ([1]; 2 h): 2.86 ± 0.23 ng/mg
- DOX in kidney ([1]; 2 h): 1.45 ± 0.01 ng/mg
- DOX in liver ([1]; 2 h): 0.3 ± 0.01 ng/mg
- DOX in lungs ([1]; 2 h): 0.11 ± 0.01 ng/mg
- DOX in spleen ([1]; 2 h): 0.13 ± 0.01 ng/mg
- DOX in tumor ([1]; 2 h): 0.37 ± 0.01 ng/mg
- DOX in tumor ([1]; 2 h, listed as free DOX): 0.37 ± 0.002 ng/mg
- DOX in heart ([1]; 24 h): 4.28 ± 0.63 ng/mg
- DOX in kidney ([1]; 24 h): 1.45 ± 0.01 ng/mg
- DOX in liver ([1]; 24 h): 1.18 ± 0.31 ng/mg
- DOX in lungs ([1]; 24 h): 0.14 ± 0.01 ng/mg
- DOX in spleen ([1]; 24 h): 0.14 ± 0.01 ng/mg
- DOX in tumor ([1]; 24 h): 0.37 ± 0.01 ng/mg
- organ distribution, brain (%) ([1]; 2 h, Supplementary Table 1): 0.13%
- organ distribution, heart (%) ([1]; 2 h, Supplementary Table 1): 0.41%
- organ distribution, kidney (%) ([1]; 2 h, Supplementary Table 1): 0.42%
- organ distribution, liver (%) ([1]; 2 h, Supplementary Table 1): 0.35%
- organ distribution, lungs (%) ([1]; 2 h, Supplementary Table 1): 0.08%
- organ distribution, spleen (%) ([1]; 2 h, Supplementary Table 1): 0.08%
- organ distribution, tumor (%) ([1]; 2 h, Supplementary Table 1): 0.08%
- organ distribution, brain (%) ([1]; 24 h, Supplementary Table 2): 0.47%
- organ distribution, heart (%) ([1]; 24 h, Supplementary Table 2): 0.62%
- organ distribution, kidney (%) ([1]; 24 h, Supplementary Table 2): 0.42%
- organ distribution, liver (%) ([1]; 24 h, Supplementary Table 2): 1.38%
- organ distribution, lungs (%) ([1]; 24 h, Supplementary Table 2): 0.08%
- organ distribution, spleen (%) ([1]; 24 h, Supplementary Table 2): 0.08%
- organ distribution, tumor (%) ([1]; 24 h, Supplementary Table 2): 0.08%
- serum drug concentration, 2 h (%) ([2]; 2 h, Supplementary Table 3): 2.02%
- serum drug concentration, 24 h (%) ([2]; 24 h, Supplementary Table 3): 1.71%
- serum drug concentration, 2 h ([2]; DOX 5 mg/kg, 2 h): 110.53 ± 11.83 ng/100 μL
- blood serum fluorescence, 2 h ([2]; DOX 5 mg/kg, 2 h (Figure 6)): 1008.3 ± 431.41 RFU/100 µL
- serum drug concentration, 24 h ([2]; DOX 5 mg/kg, 24 h): 93.74 ± 3.89 ng/100 μL

Compound: O=P1(N(CCCl)CCCl)NCCCO1 (stereo not drawn) [free CYP, cyclophosphamide]
- tumor size at first treatment ([3]; day 14 after tumor inoculation, when first treatment was administered): 145.89 ± 33.53 mm^3
- tumor size, times less than the untreated group ([3]; day 27): ~3.5
- tumor size ([3]; day 27, IV, three doses every two days from day 14, CYP 0.3 mg/kg where drug present): 633.33 ± 121.16 mm^3
- body weight gain / visible toxicity [4]: significantly slowed the gain
